Measurements: ChEMBL document CHEMBL5724806, “Unraveling interindividual differences and functional consequences of gut microbial metabolism of immunosuppressants” (2024)
One block for each compound: values may come before it.

Assays:
Type in all cases: ADME
[1] = (§1) The drug is tested on Capnocytophaga ochracea strain: DSM7271 for biotransformation under microaerobic condition. The drug concentrations were measured over 6 timepoints collected between 0 and 12 hours of incubation by liquid-chromatography-coupled mass spectrometry (LC–MS); parameters: dose 5 uM, timepoint 0, 1.5, 3, 6, 9, 12 hours; settings: 5 µM
[2] = as §1, with “the gut metagenome community of P-03 with ENA study accession number: PRJEB31790” for “Capnocytophaga ochracea strain: DSM7271”, “7” for “6”; parameters: dose 5 uM, timepoint 0, 0.75, 1.5, 3, 6, 9, 12 hours; settings: 5 µM
[3] = (§2) The drug is tested on Parabacteroides distasonis strain: DSM20701 for biotransformation under anaerobic condition. The drug concentrations were measured over 6 timepoints collected between 0 and 12 hours of incubation by liquid-chromatography-coupled mass spectrometry (LC–MS); parameters: dose 5 uM, timepoint 0, 1.5, 3, 6, 9, 12 hours; settings: 5 µM
[4] = The drug is tested on Eubacterium rectale strain: DSM17629 for biotransformation under anaerobic condition. The drug concentrations were measured over 6 timepoints collected between 0 and 12 hours of incubation by liquid-chromatography-coupled mass spectrometry (LC–MS); parameters: dose 5 uM, timepoint 0, 1.5, 3, 6, 9, 12 hours; settings: agathobacter rectalis, 5 µM
[5] = as §1, with “the gut metagenome community of A-03 with ENA study accession number: PRJEB31790” for “Capnocytophaga ochracea strain: DSM7271”, “7” for “6”; parameters: dose 5 uM, timepoint 0, 0.75, 1.5, 3, 6, 9, 12 hours; settings: 5 µM
[6] = The drug is tested on Prevotella copri strain: DSM18205 for biotransformation under anaerobic condition. The drug concentrations were measured over 6 timepoints collected between 0 and 12 hours of incubation by liquid-chromatography-coupled mass spectrometry (LC–MS); parameters: dose 5 uM, timepoint 0, 1.5, 3, 6, 9, 12 hours; settings: segatella copri, 5 µM
[7] = The drug is tested on Bacteroides uniformis strain: DSM6597 for biotransformation under anaerobic condition. The drug concentrations were measured over 6 timepoints collected between 0 and 12 hours of incubation by liquid-chromatography-coupled mass spectrometry (LC–MS); parameters: dose 5 uM, timepoint 0, 1.5, 3, 6, 9, 12 hours; settings: 5 µM
[8] = as §2, with “the gut metagenome community of T-04 with ENA study accession number: PRJEB31790” for “Parabacteroides distasonis strain: DSM20701”, “7” for “6”; parameters: dose 5 uM, timepoint 0, 0.75, 1.5, 3, 6, 9, 12 hours; settings: 5 µM
[9] = as §2, with “the gut metagenome community of T-05 with ENA study accession number: PRJEB31790” for “Parabacteroides distasonis strain: DSM20701”, “7” for “6”; parameters: dose 5 uM, timepoint 0, 0.75, 1.5, 3, 6, 9, 12 hours; settings: 5 µM
[10] = as §1, with “the gut metagenome community of A-10 with ENA study accession number: PRJEB31790” for “Capnocytophaga ochracea strain: DSM7271”, “7” for “6”; parameters: dose 5 uM, timepoint 0, 0.75, 1.5, 3, 6, 9, 12 hours; settings: 5 µM

Bacterial Biotransformation [1]: Compound NOT metabolized
Bacterial Biotransformation [2]: Compound metabolized
Bacterial Biotransformation [3]: Compound NOT metabolized
Bacterial Biotransformation [4]: Compound NOT metabolized
Bacterial Biotransformation [5]: Compound metabolized
Bacterial Biotransformation [6]: Compound NOT metabolized
Bacterial Biotransformation [7]: Compound NOT metabolized
Bacterial Biotransformation [8]: Compound NOT metabolized
Bacterial Biotransformation [9]: Compound NOT metabolized
Bacterial Biotransformation [10]: Compound metabolized
Compound: C[C@]12C=CC(=O)C=C1CC[C@@H]1[C@@H]2[C@@H](O)C[C@@]2(C)[C@H]1CC[C@]2(O)C(=O)CO [PREDNISOLONE]

Bacterial Biotransformation [1]: Compound NOT metabolized
Bacterial Biotransformation [2]: Compound NOT metabolized
Bacterial Biotransformation [3]: Compound NOT metabolized
Bacterial Biotransformation [4]: Compound NOT metabolized
Bacterial Biotransformation [5]: Compound NOT metabolized
Bacterial Biotransformation [6]: Compound NOT metabolized
Bacterial Biotransformation [7]: Compound NOT metabolized
Bacterial Biotransformation [8]: Compound NOT metabolized
Bacterial Biotransformation [9]: Compound NOT metabolized
Bacterial Biotransformation [10]: Compound NOT metabolized
Compound: CNC(=C[N+](=O)[O-])NCCSCc1ccc(CN(C)C)o1 [RANITIDINE]

Bacterial Biotransformation [1]: Compound NOT metabolized
Bacterial Biotransformation [2]: Compound NOT metabolized
Bacterial Biotransformation [3]: Compound NOT metabolized
Bacterial Biotransformation [4]: Compound NOT metabolized
Bacterial Biotransformation [5]: Compound NOT metabolized
Bacterial Biotransformation [6]: Compound NOT metabolized
Bacterial Biotransformation [7]: Compound NOT metabolized
Bacterial Biotransformation [8]: Compound NOT metabolized
Bacterial Biotransformation [9]: Compound NOT metabolized
Bacterial Biotransformation [10]: Compound NOT metabolized
Compound: CCOC(=O)[C@H](CCc1ccccc1)N[C@@H](C)C(=O)N1[C@H](C(=O)O)C[C@@H]2CCC[C@@H]21

Bacterial Biotransformation [1]: Compound NOT metabolized
Bacterial Biotransformation [2]: Compound NOT metabolized
Bacterial Biotransformation [3]: Compound NOT metabolized
Bacterial Biotransformation [4]: Compound NOT metabolized
Bacterial Biotransformation [5]: Compound NOT metabolized
Bacterial Biotransformation [6]: Compound NOT metabolized
Bacterial Biotransformation [7]: Compound NOT metabolized
Bacterial Biotransformation [8]: Compound NOT metabolized
Bacterial Biotransformation [9]: Compound metabolized
Bacterial Biotransformation [10]: Compound NOT metabolized
Compound: COc1c(C)c2c(c(O)c1C/C=C(\C)CCC(=O)O)C(=O)OC2 [MYCOPHENOLIC ACID]

Bacterial Biotransformation [1]: Compound NOT metabolized
Bacterial Biotransformation [2]: Compound NOT metabolized
Bacterial Biotransformation [3]: Compound NOT metabolized
Bacterial Biotransformation [4]: Compound NOT metabolized
Bacterial Biotransformation [5]: Compound NOT metabolized
Bacterial Biotransformation [6]: Compound NOT metabolized
Bacterial Biotransformation [7]: Compound NOT metabolized
Bacterial Biotransformation [8]: Compound NOT metabolized
Bacterial Biotransformation [9]: Compound metabolized
Bacterial Biotransformation [10]: Compound metabolized
Compound: CN(Cc1cnc2nc(N)nc(N)c2n1)c1ccc(C(=O)N[C@@H](CCC(=O)O)C(=O)O)cc1 [METHOTREXATE]

The remaining lines, values behind:

Compound: C[C@@H]1C[C@H]2[C@@H]3CCC4=CC(=O)C=C[C@]4(C)[C@@]3(F)[C@@H](O)C[C@]2(C)[C@@]1(O)C(=O)CO [DEXAMETHASONE]
Bacterial Biotransformation [1]: Compound NOT metabolized
Bacterial Biotransformation [2]: Compound NOT metabolized
Bacterial Biotransformation [3]: Compound NOT metabolized
Bacterial Biotransformation [4]: Compound NOT metabolized
Bacterial Biotransformation [5]: Compound NOT metabolized
Bacterial Biotransformation [6]: Compound NOT metabolized
Bacterial Biotransformation [7]: Compound NOT metabolized
Bacterial Biotransformation [8]: Compound NOT metabolized
Bacterial Biotransformation [9]: Compound NOT metabolized
Bacterial Biotransformation [10]: Compound NOT metabolized

Compound: CO[C@H]1C[C@@H]2CC[C@@H](C)[C@@](O)(O2)C(=O)C(=O)N2CCCC[C@H]2C(=O)O[C@H]([C@H](C)C[C@@H]2CC[C@@H](OCCO)[C@H](OC)C2)CC(=O)[C@H](C)/C=C(\C)[C@@H](O)[C@@H](OC)C(=O)[C@H](C)C[C@H](C)/C=C/C=C/C=C/1C [EVEROLIMUS]
Bacterial Biotransformation [1]: Compound NOT metabolized
Bacterial Biotransformation [2]: Compound NOT metabolized
Bacterial Biotransformation [3]: Compound NOT metabolized
Bacterial Biotransformation [4]: Compound NOT metabolized
Bacterial Biotransformation [5]: Compound metabolized
Bacterial Biotransformation [6]: Compound NOT metabolized
Bacterial Biotransformation [7]: Compound NOT metabolized
Bacterial Biotransformation [8]: Compound NOT metabolized
Bacterial Biotransformation [9]: Compound NOT metabolized
Bacterial Biotransformation [10]: Compound NOT metabolized

Compound: C=CC[C@@H]1/C=C(\C)C[C@H](C)C[C@H](OC)[C@H]2O[C@@](O)(C(=O)C(=O)N3CCCC[C@H]3C(=O)O[C@H](/C(C)=C/[C@@H]3CC[C@@H](O)[C@H](OC)C3)[C@H](C)[C@@H](O)CC1=O)[C@H](C)C[C@@H]2OC.O [TACROLIMUS]
Bacterial Biotransformation [1]: Compound NOT metabolized
Bacterial Biotransformation [2]: Compound NOT metabolized
Bacterial Biotransformation [3]: Compound NOT metabolized
Bacterial Biotransformation [4]: Compound NOT metabolized
Bacterial Biotransformation [5]: Compound metabolized
Bacterial Biotransformation [6]: Compound NOT metabolized
Bacterial Biotransformation [7]: Compound metabolized
Bacterial Biotransformation [8]: Compound NOT metabolized
Bacterial Biotransformation [9]: Compound NOT metabolized
Bacterial Biotransformation [10]: Compound metabolized

Compound: C[C@]12CCC(=O)C=C1CC[C@@H]1[C@@H]2C(=O)C[C@@]2(C)[C@H]1CC[C@]2(O)C(=O)CO [CORTISONE]
Bacterial Biotransformation [1]: Compound NOT metabolized
Bacterial Biotransformation [2]: Compound metabolized
Bacterial Biotransformation [3]: Compound NOT metabolized
Bacterial Biotransformation [4]: Compound NOT metabolized
Bacterial Biotransformation [5]: Compound metabolized
Bacterial Biotransformation [6]: Compound NOT metabolized
Bacterial Biotransformation [7]: Compound NOT metabolized
Bacterial Biotransformation [8]: Compound NOT metabolized
Bacterial Biotransformation [9]: Compound metabolized
Bacterial Biotransformation [10]: Compound metabolized

Compound: C[C@@H](NCCCc1cccc(C(F)(F)F)c1)c1cccc2ccccc12
Bacterial Biotransformation [1]: Compound NOT metabolized
Bacterial Biotransformation [2]: Compound NOT metabolized
Bacterial Biotransformation [3]: Compound NOT metabolized
Bacterial Biotransformation [4]: Compound NOT metabolized
Bacterial Biotransformation [5]: Compound NOT metabolized
Bacterial Biotransformation [6]: Compound NOT metabolized
Bacterial Biotransformation [7]: Compound NOT metabolized
Bacterial Biotransformation [8]: Compound NOT metabolized
Bacterial Biotransformation [9]: Compound NOT metabolized
Bacterial Biotransformation [10]: Compound NOT metabolized

Compound: C[C@]12CCC(=O)C=C1CC[C@@H]1[C@@H]2[C@@H](O)C[C@@]2(C)[C@H]1CC[C@]2(O)C(=O)CO [HYDROCORTISONE]
Bacterial Biotransformation [1]: Compound NOT metabolized
Bacterial Biotransformation [2]: Compound metabolized
Bacterial Biotransformation [3]: Compound NOT metabolized
Bacterial Biotransformation [4]: Compound NOT metabolized
Bacterial Biotransformation [5]: Compound metabolized
Bacterial Biotransformation [6]: Compound NOT metabolized
Bacterial Biotransformation [7]: Compound NOT metabolized
Bacterial Biotransformation [8]: Compound NOT metabolized
Bacterial Biotransformation [9]: Compound metabolized
Bacterial Biotransformation [10]: Compound metabolized

Compound: CCC(C)(C)C(=O)O[C@H]1C[C@@H](C)C=C2C=C[C@H](C)[C@H](CC[C@@H]3C[C@@H](O)CC(=O)O3)[C@H]21 [SIMVASTATIN]
Bacterial Biotransformation [1]: Compound NOT metabolized
Bacterial Biotransformation [2]: Compound NOT metabolized
Bacterial Biotransformation [3]: Compound NOT metabolized
Bacterial Biotransformation [4]: Compound NOT metabolized
Bacterial Biotransformation [5]: Compound NOT metabolized
Bacterial Biotransformation [6]: Compound metabolized
Bacterial Biotransformation [7]: Compound NOT metabolized
Bacterial Biotransformation [8]: Compound NOT metabolized
Bacterial Biotransformation [9]: Compound NOT metabolized
Bacterial Biotransformation [10]: Compound NOT metabolized

Compound: CCOC(=O)C1=C(COCCN)NC(C)=C(C(=O)OC)C1c1ccccc1Cl (stereo not given) [AMLODIPINE]
Bacterial Biotransformation [1]: Compound NOT metabolized
Bacterial Biotransformation [2]: Compound NOT metabolized
Bacterial Biotransformation [3]: Compound NOT metabolized
Bacterial Biotransformation [4]: Compound NOT metabolized
Bacterial Biotransformation [5]: Compound NOT metabolized
Bacterial Biotransformation [6]: Compound NOT metabolized
Bacterial Biotransformation [7]: Compound NOT metabolized
Bacterial Biotransformation [8]: Compound NOT metabolized
Bacterial Biotransformation [9]: Compound NOT metabolized
Bacterial Biotransformation [10]: Compound NOT metabolized
